Test results published in the supplement of paper PMC13380429.

Columns and labels:
Conditions in all cases: 72 h
Vero E6 [1] = test: cell viability relative to DMSO; higher = less toxic
HepG2 [2] = test: as above
U2OS [3] = test: as above
Caco-2 [4] = test: as above
Calu-3 [5] = test: as above
Vero E6 [6] = test: relative viability EC50 (midpoint between 100% and the lowest measured viability); higher = less toxic
HepG2 [7] = test: as above
U2OS [8] = test: as above
Caco-2 [9] = test: as above
Calu-3 [10] = test: as above
Vero E6 [11] = test: drug sensitivity score (DSS) for viability; higher = more toxic; extreme values may be limits of the assay
HepG2 [12] = test: as above
U2OS [13] = test: as above
Caco-2 [14] = test: as above
Calu-3 [15] = test: as above

Q: `O=C(c1ccc(Cl)cc1)N(Cc1ccccc1)C1CCCCC1` [FPS-ZM1] was tested. Which cell viability (Vero E6 [1]; 1 nM) did it give?
A: 97.6%

Q: What about the cell viability (Vero E6 [1]; 10 nM) of the same molecule?
A: 97.7%

Q: What about the cell viability (Vero E6 [1]; 100 nM) of the same molecule?
A: 99.3%

Q: And the cell viability (Vero E6 [1]; 1000 nM)?
A: 101%

Q: What about the cell viability (Vero E6 [1]; 10000 nM) of the same molecule?
A: 90.8%

Q: And the cell viability (HepG2 [2]; 1 nM)?
A: 106%

Q: What about the cell viability (HepG2 [2]; 10 nM) of the same molecule?
A: 106%

Q: What about the cell viability (HepG2 [2]; 100 nM) of the same molecule?
A: 102%

Q: What about the cell viability (HepG2 [2]; 1000 nM) of the same molecule?
A: 92.9%

Q: What about the cell viability (HepG2 [2]; 10000 nM) of the same molecule?
A: 93.8%

Q: And the cell viability (U2OS [3]; 1 nM)?
A: 98%

Q: And the cell viability (U2OS [3]; 10 nM)?
A: 98.6%

Q: And the cell viability (U2OS [3]; 100 nM)?
A: 97.4%

Q: What about the cell viability (U2OS [3]; 1000 nM) of the same molecule?
A: 100%

Q: What about the cell viability (U2OS [3]; 10000 nM) of the same molecule?
A: 96.2%

Q: What about the cell viability (Caco-2 [4]; 1 nM) of the same molecule?
A: 101%

Q: What about the cell viability (Caco-2 [4]; 10 nM) of the same molecule?
A: 91.6%

Q: What about the cell viability (Caco-2 [4]; 100 nM) of the same molecule?
A: 93.3%

Q: And the cell viability (Caco-2 [4]; 1000 nM)?
A: 102%

Q: What about the cell viability (Caco-2 [4]; 10000 nM) of the same molecule?
A: 89.4%

Q: What about the cell viability (Calu-3 [5]; 1 nM) of the same molecule?
A: 105%

Q: And the cell viability (Calu-3 [5]; 10 nM)?
A: 96.3%

Q: And the cell viability (Calu-3 [5]; 100 nM)?
A: 102%

Q: What about the cell viability (Calu-3 [5]; 1000 nM) of the same molecule?
A: 99.3%

Q: And the cell viability (Calu-3 [5]; 10000 nM)?
A: 89.7%

Q: What about the “relative viability EC50” value (Vero E6 [6]) of the same molecule?
A: > 10 µM

Q: What about the “relative viability EC50” value (HepG2 [7]) of the same molecule?
A: > 10 µM

Q: What about the “relative viability EC50” value (U2OS [8]) of the same molecule?
A: > 10 µM

Q: What about the “relative viability EC50” value (Caco-2 [9]) of the same molecule?
A: > 10 µM

Q: What about the “relative viability EC50” value (Calu-3 [10]) of the same molecule?
A: > 10 µM

Q: What about the drug sensitivity score (Vero E6 [11]) of the same molecule?
A: 0

Q: And the drug sensitivity score (HepG2 [12])?
A: 0

Q: What about the drug sensitivity score (U2OS [13]) of the same molecule?
A: 0

Q: What about the drug sensitivity score (Caco-2 [14]) of the same molecule?
A: 0

Q: And the drug sensitivity score (Calu-3 [15])?
A: 0

Q: Which results are given for `Cc1ccc2c(c1)Cc1c(C(=O)NN3CCCCC3)nn(-c3ccc(Cl)cc3Cl)c1-2` [GP1a]?
A: cell viability (Vero E6 [1]; 1 nM): 99.9%; cell viability (Vero E6 [1]; 10 nM): 100%; cell viability (Vero E6 [1]; 100 nM): 103%; cell viability (Vero E6 [1]; 1000 nM): 100%; cell viability (Vero E6 [1]; 10000 nM): 98.6%; cell viability (HepG2 [2]; 1 nM): 100%; cell viability (HepG2 [2]; 10 nM): 96.9%; cell viability (HepG2 [2]; 100 nM): 98.4%; cell viability (HepG2 [2]; 1000 nM): 91.9%; cell viability (HepG2 [2]; 10000 nM): 91.3%; cell viability (U2OS [3]; 1 nM): 99.4%; cell viability (U2OS [3]; 10 nM): 108%; cell viability (U2OS [3]; 100 nM): 97.7%; cell viability (U2OS [3]; 1000 nM): 101%; cell viability (U2OS [3]; 10000 nM): 89.7%; cell viability (Caco-2 [4]; 1 nM): 102%; cell viability (Caco-2 [4]; 10 nM): 102%; cell viability (Caco-2 [4]; 100 nM): 103%; cell viability (Caco-2 [4]; 1000 nM): 99.5%; cell viability (Caco-2 [4]; 10000 nM): 84.1%; cell viability (Calu-3 [5]; 1 nM): 99.6%; cell viability (Calu-3 [5]; 10 nM): 101%; cell viability (Calu-3 [5]; 100 nM): 91.8%; cell viability (Calu-3 [5]; 1000 nM): 101%; cell viability (Calu-3 [5]; 10000 nM): 86.7%; relative viability EC50 (Vero E6 [6]): > 10 µM; relative viability EC50 (HepG2 [7]): > 10 µM; relative viability EC50 (U2OS [8]): > 10 µM; relative viability EC50 (Caco-2 [9]): > 10 µM; relative viability EC50 (Calu-3 [10]): > 10 µM; drug sensitivity score (Vero E6 [11]): 0; drug sensitivity score (HepG2 [12]): 0; drug sensitivity score (U2OS [13]): 0; drug sensitivity score (Caco-2 [14]): 0.3; drug sensitivity score (Calu-3 [15]): 0.1

Q: With `CCCn1c(=O)c2nc(-c3ccccc3)[nH]c2n(CCC)c1=O` [1,3-dipropyl-8-phenylxanthine] as the molecule, how does the cell viability (Vero E6 [1]; 1 nM) read?
A: 96.6%

Q: What about the cell viability (Vero E6 [1]; 10 nM) of the same molecule?
A: 95.4%

Q: And the cell viability (Vero E6 [1]; 100 nM)?
A: 94%

Q: And the cell viability (Vero E6 [1]; 1000 nM)?
A: 95.7%

Q: What about the cell viability (Vero E6 [1]; 10000 nM) of the same molecule?
A: 94.9%

Q: And the cell viability (HepG2 [2]; 1 nM)?
A: 108%

Q: What about the cell viability (HepG2 [2]; 10 nM) of the same molecule?
A: 99.8%

Q: What about the cell viability (HepG2 [2]; 100 nM) of the same molecule?
A: 103%

Q: And the cell viability (HepG2 [2]; 1000 nM)?
A: 90.3%

Q: And the cell viability (HepG2 [2]; 10000 nM)?
A: 69.5%

Q: And the cell viability (U2OS [3]; 1 nM)?
A: 98.1%

Q: And the cell viability (U2OS [3]; 10 nM)?
A: 95.4%

Q: And the cell viability (U2OS [3]; 100 nM)?
A: 90.1%

Q: What about the cell viability (U2OS [3]; 1000 nM) of the same molecule?
A: 97.1%

Q: And the cell viability (U2OS [3]; 10000 nM)?
A: 90.5%

Q: What about the cell viability (Caco-2 [4]; 1 nM) of the same molecule?
A: 91.1%

Q: And the cell viability (Caco-2 [4]; 10 nM)?
A: 96.4%

Q: What about the cell viability (Caco-2 [4]; 100 nM) of the same molecule?
A: 90.3%

Q: And the cell viability (Caco-2 [4]; 1000 nM)?
A: 102%

Q: What about the cell viability (Caco-2 [4]; 10000 nM) of the same molecule?
A: 81.9%

Q: What about the cell viability (Calu-3 [5]; 1 nM) of the same molecule?
A: 102%

Q: And the cell viability (Calu-3 [5]; 10 nM)?
A: 102%

Q: What about the cell viability (Calu-3 [5]; 100 nM) of the same molecule?
A: 101%

Q: What about the cell viability (Calu-3 [5]; 1000 nM) of the same molecule?
A: 102%

Q: And the cell viability (Calu-3 [5]; 10000 nM)?
A: 89.4%

Q: And the “relative viability EC50” value (Vero E6 [6])?
A: > 10 µM

Q: And the “relative viability EC50” value (U2OS [8])?
A: > 10 µM

Q: And the “relative viability EC50” value (Caco-2 [9])?
A: > 10 µM

Q: And the “relative viability EC50” value (Calu-3 [10])?
A: > 10 µM

Q: And the drug sensitivity score (Vero E6 [11])?
A: 0

Q: And the drug sensitivity score (HepG2 [12])?
A: 2.7

Q: And the drug sensitivity score (U2OS [13])?
A: 0

Q: And the drug sensitivity score (Caco-2 [14])?
A: 0.4

Q: And the drug sensitivity score (Calu-3 [15])?
A: 0
